One series deals with hERG Tyr652 and Phe656. The series can be described thus: Assessment of cation-π interaction in hERG drug block across fluorinated Phe series. As to conditions: judged from IC50 across Y652 and F656 fluorinated Phe series.
For the next series, the system named is hERG S631A. As to conditions: S631A mutation which abolishes inactivation, versus WT; cited from earlier work.
For series [1], the system named is nicotinic receptor α-subunit Trp-149 doubly fluorinated. More on the design: method as in PMID 9770444. As to conditions: doubly fluorinating Trp-149 in the α-subunit; cited from earlier work.

The structures appear in SMILES notation.

Text for hERG Tyr652 and Phe656: Testing whether a cation-π relationship occurs at an aromatic residue can be accomplished by measuring the impact of substitution with a series of fluorinated aromatic amino acids. Successive fluorinations of aromatic side chains yield additive reductions in ability to donate π electrons to cation-π interactions[30]. Through the use of nonsense suppression, we incorporated singly and doubly fluorinated phenylalanine derivatives at both Tyr652 and Phe656. These UAA also have the advantage of providing a sterically conservative means of studying the specific nature of interactions of individual residues. If hERG drug interactions depend largely on cation-π binding interactions at sites Tyr652 and Phe656, then successive fluorinations at these sites should decrease drug affinity in a linear manner[30].
This protocol is repeated in successive sweeps as either control or drug-containing solutions flow into the bath chamber and over the oocyte. […] The steady state current at −50 mV reached at each drug concentration was normalized to the steady state current at −50 mV with no drug. From these normalized values, a concentration-response curve was generated and fit with a Hill equation. IC50 and Hill coefficient values were generated from each Hill fit. […]

Consider `CN(CCOc1ccc(NS(C)(=O)=O)cc1)CCc1ccc(NS(C)(=O)=O)cc1` [Dofetilide, dofetilide], for which the “Cation – π behaviour?” value in the series on hERG Tyr652 and Phe656 is reported as “No”. In addition, the potency of block result with hERG S631A is given as “reduced”.
As to `C=C[C@H]1C[N@@]2CC[C@H]1C[C@@H]2[C@@H](O)c1ccnc2ccc(OC)cc12` [Quinidine, quinidine], the “Cation – π behaviour?” value in the series with hERG Tyr652 and Phe656 is on record as “No”. For the same compound, in the series on hERG S631A, the potency of block entry is “reduced”.
For `CC(=O)OCC[N+](C)(C)C` [acetyl choline], the reduction of potency result in series [1] is recorded as “nearly an order of magnitude”.

The values above are taken from publication PMC5762913, “Probing the molecular basis of hERG drug block with unnatural amino acids” (Scientific Reports, 2018).
